Source: ChEMBL document CHEMBL1201862, “PubChem BioAssay data set” (2004)
Active and inactive are the calls of the source.

Experiments:
[1] = target: T1, Oxysterols receptor LXR-beta (Homo sapiens, UniProt P55055); assay type: functional, cell-based;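 also: agonist activity at LXR measured by a cell-based luminescence readout across a dose range, run as a counterscreen for daf-12 agonists; HEK293 cells with Gal4-LXR fusion and GAL4-driven luciferase reporter; potency for activation of Gal4-LXR reporter so compounds are agonists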
T1 sequence (P55055 whole entry): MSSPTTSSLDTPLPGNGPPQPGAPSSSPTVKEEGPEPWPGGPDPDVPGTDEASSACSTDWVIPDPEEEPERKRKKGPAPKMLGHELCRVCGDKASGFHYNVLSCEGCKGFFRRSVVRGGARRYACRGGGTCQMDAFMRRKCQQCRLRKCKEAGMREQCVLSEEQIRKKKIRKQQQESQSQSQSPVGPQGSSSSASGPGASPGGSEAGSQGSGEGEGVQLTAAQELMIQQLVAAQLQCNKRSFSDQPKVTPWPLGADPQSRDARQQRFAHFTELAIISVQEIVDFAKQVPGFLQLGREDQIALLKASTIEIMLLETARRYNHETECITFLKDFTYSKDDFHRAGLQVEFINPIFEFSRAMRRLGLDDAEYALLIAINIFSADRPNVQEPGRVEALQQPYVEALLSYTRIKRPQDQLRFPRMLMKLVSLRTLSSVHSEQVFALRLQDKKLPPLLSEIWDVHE

Mu-type opioid receptor = Mu-type opioid receptor (Homo sapiens, UniProt P35372); assay type: functional, cell-based;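 also: U2OS cells with beta-arrestin recruitment to OPRM1 by beta-gal complementation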
[2] = target: 5-hydroxytryptamine receptor 2A (Mus musculus, UniProt P35363); assay type: functional, cell-based;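 also: CHO-K1 cells with tagged receptor and beta-arrestin; agonist potency measured as compound-induced activation of the receptor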
Beta-lactamase [3] = target: Beta-lactamase (Salmonella choleraesuis (strain SC-B67), UniProt Q5J463); experiment: Epi-absorbance-based counterscreen for selective VIM-2 inhibitors: dose response biochemical high throughput screening assay to identify inhibitors of TEM-1 serine-beta-lactamase.
Beta-lactamase [4] = target: T2, Beta-lactamase (Pseudomonas aeruginosa, UniProt Q79MP6); experiment: IMP-1 metallo-beta-lactamase inhibitors, dose response, selectivity assay for VIM-2 inhibitor project, biochemical, epi-absorbance (AID 1920)
Beta-lactamase [5] = target: T2, Beta-lactamase; experiment: […] counterscreen for selective VIM-2 inhibitors: dose response biochemical high throughput screening assay to identify inhibitors of IMP-1 metallo-beta-lactamase.
[6] = MITF Orthogonal Assay: SK-MEL-5 CTG Assay Measured in Cell-Based System Using Plate Reader - 2084-02_Inhibitor_Dose_DryPowder_Activity_Set7.; assay type: functional
[7] = MITF: Counter assay: A375 proliferation Measured in Cell-Based System Using Plate Reader - 2084-03_Inhibitor_Dose_DryPowder_Activity_Set8.; assay type: functional; details: A-375
[8] = TRPM1 promoter luciferase reporter signal decrease, dose response, MITF inhibitor project, cell-based, SK-MEL-5, dry powder, set 8 (AID 624430); assay type: functional
[9] = target: T3, Low molecular weight phosphotyrosine protein phosphatase (Homo sapiens, UniProt P24666); assay type: functional; details: read-out: IC50_Mean
[10] = target: T3, Low molecular weight phosphotyrosine protein phosphatase; assay type: functional; details: read-out: IC50_Mean; remark: listed apart in the source
[11] = HEp-2 cell cytotoxicity, dose response, cytotoxicity control for RSV inhibitor project, HTS (AID 2410); assay type: functional; details: human respiratory syncytial virus
Fatty acid synthase [12] = target: T4, Fatty acid synthase (Homo sapiens, UniProt P49327); experiment: FAS thioesterase domain inhibitors, dose response, biochemical, endpoint fluorescence intensity, uHTS hits (AID 624327); assay type: functional;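 also: fluorescence from hydrolysis of an O-methyl fluorescein acyl ester substrate by the enzyme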
Fatty acid synthase [13] = target: T4, Fatty acid synthase; experiment: FAS thioesterase domain inhibitors, dose response, biochemical, kinetic fluorescence intensity (AID 624326); assay type: functional;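 also: rate of fluorescence rise from hydrolysis of a fluorogenic O-methyl fluorescein ester substrate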
cells = assay type: functional, cell-based
[14] = target: T5, Nuclear receptor subfamily 0 group B member 1 (Homo sapiens, UniProt P51843); assay type: functional, cell-based
T5 sequence (P51843 whole entry): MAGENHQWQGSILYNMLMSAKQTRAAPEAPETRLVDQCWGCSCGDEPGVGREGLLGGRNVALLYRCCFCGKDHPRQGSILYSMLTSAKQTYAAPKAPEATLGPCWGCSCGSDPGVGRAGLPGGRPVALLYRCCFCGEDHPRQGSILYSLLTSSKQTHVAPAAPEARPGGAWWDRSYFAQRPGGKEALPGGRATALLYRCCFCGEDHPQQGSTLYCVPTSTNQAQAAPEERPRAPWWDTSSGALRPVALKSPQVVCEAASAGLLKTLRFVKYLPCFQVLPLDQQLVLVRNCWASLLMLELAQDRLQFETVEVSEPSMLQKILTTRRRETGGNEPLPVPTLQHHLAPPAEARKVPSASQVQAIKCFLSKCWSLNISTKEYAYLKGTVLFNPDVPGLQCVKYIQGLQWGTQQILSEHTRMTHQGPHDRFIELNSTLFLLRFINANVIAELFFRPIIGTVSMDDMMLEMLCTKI

[15] = Luminescence Cell-Based Dose Retest to Confirm Inhibitors of Cancer Stem Cells. [Related pubchem assays (depositor defined):AID2717, AID2721]; assay type: functional; details: Homo sapiens
[16] = target: Disintegrin and metalloproteinase domain-containing protein 17 (Homo sapiens, UniProt P78536); experiment: exosite inhibitors of ADAM17, dose response, biochemical (AID 743260)
[17] = ADAM10 protease inhibitors, dose response, selectivity assay for ADAM17 exosite inhibitor project, biochemical, FRET peptide substrate, recombinant human ADAM10 (AID 743259);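 also: ADAM10 enzyme cleaving a FRET peptide substrate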
[18] = T. cruzi growth inhibition in host cells, dose response, cell-based, plate reader, dry powder, set 2 (AID 652275); assay type: functional
Vero = experiment: Vero cell toxicity, dose response, cytotoxicity control, plate reader, cherry-pick samples (AID 687020); assay type: functional, cell-based; details: Chlorocebus sabaeus
Caspase-6 = target: T6, Caspase-6 (Homo sapiens, UniProt P55212); experiment: human caspase-6 inhibitors, dose response, biochemical, VEID-R110 fluorescence, cherry-pick (AID 720632)
T6 sequence (P55212 whole entry): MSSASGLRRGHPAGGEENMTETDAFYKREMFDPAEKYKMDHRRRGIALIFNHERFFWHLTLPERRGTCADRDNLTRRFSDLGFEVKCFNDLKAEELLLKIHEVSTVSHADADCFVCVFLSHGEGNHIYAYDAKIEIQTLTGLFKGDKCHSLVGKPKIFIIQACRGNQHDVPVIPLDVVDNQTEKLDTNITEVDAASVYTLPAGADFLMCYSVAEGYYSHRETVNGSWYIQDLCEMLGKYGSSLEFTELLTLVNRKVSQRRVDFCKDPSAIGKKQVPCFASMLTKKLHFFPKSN

[19] = target: Long-chain-fatty-acid--AMP ligase FadD28 (Mycobacterium tuberculosis, UniProt P9WQ59); experiment: Fluorescence polarization aasay to screen for inhibitors that compete for the binding of FadD28 to a bisubstrate Measured in Biochemical System Using Plate Reader - 2147-01_Inhibitor_Dose_CherryPick_Activity.; assay type: functional, Mycobacterium tuberculosis H37Rv
[20] = test system: Streptococcus sp. 'group A'; experiment: growth inhibition of control SK(-) GAS strain, dose response, counter-screen for streptokinase expression inhibitor project, luminescence, kanamycin, BacTiterGlo, confirmation (AID 1900); assay type: functional, organism-based
Streptokinase A = target: T7, Streptokinase A (Streptococcus pyogenes serotype M1, UniProt P10520); experiment: S. pyogenes streptokinase expression inhibitors, potency, dose response, plasminogen activation absorbance, OD405 (AID 1914); assay type: functional, Streptococcus pyogenes M1 GAS;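 also: secreted streptokinase activity via plasminogen activation per viability signal from cell pellet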
T7 sequence (P10520 whole entry): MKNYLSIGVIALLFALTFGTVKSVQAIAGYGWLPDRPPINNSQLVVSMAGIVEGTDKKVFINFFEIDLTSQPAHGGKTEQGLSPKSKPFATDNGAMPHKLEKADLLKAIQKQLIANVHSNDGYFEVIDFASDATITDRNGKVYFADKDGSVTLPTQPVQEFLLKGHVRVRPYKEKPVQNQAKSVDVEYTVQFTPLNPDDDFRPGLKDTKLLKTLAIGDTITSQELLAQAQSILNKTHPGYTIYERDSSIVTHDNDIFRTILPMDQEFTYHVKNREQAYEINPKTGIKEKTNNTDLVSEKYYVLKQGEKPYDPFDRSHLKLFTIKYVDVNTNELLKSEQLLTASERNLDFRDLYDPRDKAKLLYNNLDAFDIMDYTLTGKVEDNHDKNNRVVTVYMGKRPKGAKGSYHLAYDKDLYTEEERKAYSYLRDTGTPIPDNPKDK

Streptococcus = experiment: Group A Streptococcus viability loss, dose response, counter-screen for streptokinase expression inhibitor project, luminescence, BacTiterGlo (AID 1915); assay type: functional, organism-based;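 also: potency for reduction of bacterial viability or growth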
Nonstructural protein 1 = Nonstructural protein 1 (Influenza A virus, UniProt Q194T2); assay type: functional, Influenza A virus (A/California/07/2009(H1N1))
[21] = target: Matrix metalloproteinase-14 (Homo sapiens, UniProt P50281); experiment: Dose Response confirmation of uHTS hits for a small molecule inhibitors of MT1-MMP activation in a fluorescence assay set 1.; assay type: functional
[22] = target: T8, Probable nicotinate-nucleotide adenylyltransferase (Staphylococcus aureus (strain N315), UniProt P65502); assay type: functional, Staphylococcus aureus subsp. aureus N315;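 as to IC50 Mean: confirmatory dose-response retesting of NadD inhibitor hits first found in an ultra-high-throughput screen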
[23] = target: T8, Probable nicotinate-nucleotide adenylyltransferase; assay type: functional, Staphylococcus aureus subsp. aureus N315; details: read-out: IC50_Mean
[24] = target: T9, Protein disulfide-isomerase (Homo sapiens, UniProt P07237); experiment: PDI inhibitors, insulin aggregation turbidity, dose response, biochemical, absorbance, cherry-picked samples (AID 602350); assay type: functional
[25] = target: T9, Protein disulfide-isomerase; experiment: PDI inhibitors, insulin turbidity readout, dose response, biochemical, absorbance, cherry-picked samples, set 2 (AID 624274); assay type: functional
[26] = A Cell-Based Confirmatory Screen for Compounds that Inhibit VEEV, TC-83 (8).; assay type: functional
HEK293 = experiment: cells; assay type: functional, cell-based; details: Homo sapiens
[27] = target: T5, Nuclear receptor subfamily 0 group B member 1; experiment: Luminescence-based cell-based high throughput dose response assay for inhibitors of the orphan nuclear receptor subfamily 0, group B, member 1 (DAX1; NR0B1). [Related pubchem assays (depositor defined):AID504766, AID504790]; assay type: functional
[28] = HepG2 cell cytotoxicity, dose response, cytotoxicity control, ATP luminescence, cherry-pick, activator set 2 (AID 1053143); assay type: functional, cell-based
H9c2 = experiment: cells; assay type: functional, cell-based; details: Rattus norvegicus, H9c2, Myocardium;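 also: confirmatory concentration-response retest of ultra-high-throughput screening hits for modulation of myocardial damage; cell death induced by hydrogen peroxide oxidative stress; compound pretreatment for 60 min then peroxide exposure for 2 h; potency is for protecting the cells against peroxide damage rather than for killing them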
[29] = target: ATP-dependent translocase ABCB1 (Homo sapiens, UniProt P08183); experiment: ABCG2 efflux pump inhibitor potency, dose response, Ig-MXP3 cells, JC-1, flow cytometry, set 2 (AID 504566); assay type: functional; details: read-out: EC50_MICROM_;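 also: flow cytometry median green fluorescence of retained JC-1 dye; potency of efflux pump inhibition measured as rising substrate retention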
[30] = target: Nuclear receptor subfamily 5 group A member 2 (Homo sapiens, UniProt O00482); assay type: functional, cell-based;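 also: HEK293T cells transfected with LRH-1 and a StAR promoter luciferase reporter; potency for inhibitors that lower LRH-1 driven reporter light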
Steroidogenic factor 1 = Steroidogenic factor 1 (Homo sapiens, UniProt Q13285); experiment: Counterscreen for inverse agonists of the liver receptor homolog-1 (LRH-1; NR5A2): Luminescence-based cell-based high throughput dose response assay to identify inverse agonists of the Steroidogenic Factor 1 Nuclear Receptor (SF1; NR5A1).; assay type: functional
[31] = StAR promoter reporter inhibition counter-screen, dose response, counter-screen for LRH-1 inverse agonist project, cell-based, luminescence, luciferase reporter (AID 651969); assay type: functional

T4 sequence (P49327 whole entry, the tested form may be a part): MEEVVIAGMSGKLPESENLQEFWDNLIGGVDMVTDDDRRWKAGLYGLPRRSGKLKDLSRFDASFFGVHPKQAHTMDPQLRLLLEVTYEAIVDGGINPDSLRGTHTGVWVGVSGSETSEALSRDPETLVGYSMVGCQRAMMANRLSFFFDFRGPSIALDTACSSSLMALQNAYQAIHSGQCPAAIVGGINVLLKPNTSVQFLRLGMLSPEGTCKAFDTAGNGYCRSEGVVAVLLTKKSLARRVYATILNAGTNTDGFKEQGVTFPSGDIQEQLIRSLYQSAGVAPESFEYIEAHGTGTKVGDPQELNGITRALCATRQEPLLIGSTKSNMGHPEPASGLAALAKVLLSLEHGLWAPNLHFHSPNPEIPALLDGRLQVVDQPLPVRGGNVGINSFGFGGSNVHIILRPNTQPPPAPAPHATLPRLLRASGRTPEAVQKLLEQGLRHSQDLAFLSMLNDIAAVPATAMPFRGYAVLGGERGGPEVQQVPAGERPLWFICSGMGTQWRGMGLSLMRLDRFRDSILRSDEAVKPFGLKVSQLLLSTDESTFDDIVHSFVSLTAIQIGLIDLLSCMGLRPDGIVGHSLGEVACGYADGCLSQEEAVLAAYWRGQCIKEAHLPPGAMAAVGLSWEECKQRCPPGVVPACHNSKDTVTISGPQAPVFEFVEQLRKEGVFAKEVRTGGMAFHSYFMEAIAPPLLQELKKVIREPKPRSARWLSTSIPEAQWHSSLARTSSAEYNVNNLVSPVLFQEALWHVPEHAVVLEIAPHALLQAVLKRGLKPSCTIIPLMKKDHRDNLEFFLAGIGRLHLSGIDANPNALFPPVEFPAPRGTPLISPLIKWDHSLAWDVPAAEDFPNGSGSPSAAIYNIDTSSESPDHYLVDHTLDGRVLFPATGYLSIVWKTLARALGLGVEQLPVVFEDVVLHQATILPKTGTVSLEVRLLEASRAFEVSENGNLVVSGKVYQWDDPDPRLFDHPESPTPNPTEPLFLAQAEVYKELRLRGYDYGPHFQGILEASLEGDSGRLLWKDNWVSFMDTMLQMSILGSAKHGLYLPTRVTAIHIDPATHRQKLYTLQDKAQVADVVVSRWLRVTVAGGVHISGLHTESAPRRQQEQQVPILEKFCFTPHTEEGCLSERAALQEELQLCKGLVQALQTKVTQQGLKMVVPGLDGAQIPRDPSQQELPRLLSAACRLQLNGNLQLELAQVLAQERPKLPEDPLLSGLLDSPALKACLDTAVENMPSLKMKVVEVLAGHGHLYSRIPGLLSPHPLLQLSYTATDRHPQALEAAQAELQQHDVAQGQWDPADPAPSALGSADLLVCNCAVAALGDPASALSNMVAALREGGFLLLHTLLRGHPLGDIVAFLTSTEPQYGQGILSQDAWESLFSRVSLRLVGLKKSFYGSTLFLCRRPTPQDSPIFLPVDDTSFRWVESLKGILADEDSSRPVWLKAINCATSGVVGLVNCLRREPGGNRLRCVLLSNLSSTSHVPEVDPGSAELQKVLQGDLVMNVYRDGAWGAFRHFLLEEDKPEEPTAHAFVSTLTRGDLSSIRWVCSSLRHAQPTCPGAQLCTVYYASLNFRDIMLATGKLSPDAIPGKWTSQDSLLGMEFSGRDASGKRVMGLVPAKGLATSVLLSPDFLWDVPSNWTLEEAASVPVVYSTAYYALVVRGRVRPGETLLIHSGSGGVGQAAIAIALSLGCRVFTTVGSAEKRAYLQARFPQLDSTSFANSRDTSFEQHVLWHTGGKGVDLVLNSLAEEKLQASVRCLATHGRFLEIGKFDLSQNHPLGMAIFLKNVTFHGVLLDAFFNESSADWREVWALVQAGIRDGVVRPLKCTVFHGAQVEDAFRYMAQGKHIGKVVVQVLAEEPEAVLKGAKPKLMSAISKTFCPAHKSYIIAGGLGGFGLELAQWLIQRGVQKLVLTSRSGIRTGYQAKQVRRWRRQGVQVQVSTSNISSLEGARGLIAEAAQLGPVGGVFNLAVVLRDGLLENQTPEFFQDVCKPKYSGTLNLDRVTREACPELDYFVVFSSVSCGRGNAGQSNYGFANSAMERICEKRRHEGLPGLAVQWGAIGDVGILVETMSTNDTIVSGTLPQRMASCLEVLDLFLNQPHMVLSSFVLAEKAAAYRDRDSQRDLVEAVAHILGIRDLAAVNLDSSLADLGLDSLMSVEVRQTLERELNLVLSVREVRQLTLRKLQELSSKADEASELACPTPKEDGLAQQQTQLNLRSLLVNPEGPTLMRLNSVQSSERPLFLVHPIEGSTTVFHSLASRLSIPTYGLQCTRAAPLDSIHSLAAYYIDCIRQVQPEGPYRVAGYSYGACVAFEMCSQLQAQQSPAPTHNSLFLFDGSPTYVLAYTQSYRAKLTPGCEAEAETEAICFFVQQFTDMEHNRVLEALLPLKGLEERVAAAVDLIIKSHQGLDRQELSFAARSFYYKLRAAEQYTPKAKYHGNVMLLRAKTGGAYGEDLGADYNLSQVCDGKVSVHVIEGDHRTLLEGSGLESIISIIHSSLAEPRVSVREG
T8 sequence (P65502 whole entry): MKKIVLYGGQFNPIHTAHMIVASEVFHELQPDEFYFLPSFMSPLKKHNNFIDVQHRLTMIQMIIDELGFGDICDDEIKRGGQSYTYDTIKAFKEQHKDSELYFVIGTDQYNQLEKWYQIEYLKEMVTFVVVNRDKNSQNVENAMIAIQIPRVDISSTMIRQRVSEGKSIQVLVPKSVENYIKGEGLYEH
T2 sequence (Q79MP6 whole entry): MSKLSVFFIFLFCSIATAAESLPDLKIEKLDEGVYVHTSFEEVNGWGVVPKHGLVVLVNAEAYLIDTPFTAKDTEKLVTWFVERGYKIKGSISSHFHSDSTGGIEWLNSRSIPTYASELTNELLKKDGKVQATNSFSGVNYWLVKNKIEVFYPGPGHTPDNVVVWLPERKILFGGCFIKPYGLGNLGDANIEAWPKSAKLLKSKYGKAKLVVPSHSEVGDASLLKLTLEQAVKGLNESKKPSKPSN
T3 sequence (P24666 whole entry): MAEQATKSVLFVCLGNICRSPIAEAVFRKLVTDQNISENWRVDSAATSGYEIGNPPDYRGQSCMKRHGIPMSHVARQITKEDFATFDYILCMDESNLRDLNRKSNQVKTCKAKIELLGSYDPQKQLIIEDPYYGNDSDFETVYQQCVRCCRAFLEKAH
T9 sequence (P07237 whole entry): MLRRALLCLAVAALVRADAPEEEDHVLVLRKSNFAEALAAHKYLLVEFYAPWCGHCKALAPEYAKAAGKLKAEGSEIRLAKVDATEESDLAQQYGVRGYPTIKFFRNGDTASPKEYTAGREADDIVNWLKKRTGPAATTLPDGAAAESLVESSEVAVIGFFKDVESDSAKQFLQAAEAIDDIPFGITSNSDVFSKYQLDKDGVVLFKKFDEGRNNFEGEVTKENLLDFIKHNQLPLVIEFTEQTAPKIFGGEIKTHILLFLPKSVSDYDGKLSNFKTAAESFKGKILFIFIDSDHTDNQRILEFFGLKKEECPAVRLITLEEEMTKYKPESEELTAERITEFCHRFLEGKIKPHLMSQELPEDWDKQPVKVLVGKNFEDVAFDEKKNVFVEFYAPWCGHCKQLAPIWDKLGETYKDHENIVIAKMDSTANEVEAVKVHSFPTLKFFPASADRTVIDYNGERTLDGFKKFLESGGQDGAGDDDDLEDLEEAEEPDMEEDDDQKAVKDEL
Sequence of Steroidogenic factor 1 (Q13285 whole entry): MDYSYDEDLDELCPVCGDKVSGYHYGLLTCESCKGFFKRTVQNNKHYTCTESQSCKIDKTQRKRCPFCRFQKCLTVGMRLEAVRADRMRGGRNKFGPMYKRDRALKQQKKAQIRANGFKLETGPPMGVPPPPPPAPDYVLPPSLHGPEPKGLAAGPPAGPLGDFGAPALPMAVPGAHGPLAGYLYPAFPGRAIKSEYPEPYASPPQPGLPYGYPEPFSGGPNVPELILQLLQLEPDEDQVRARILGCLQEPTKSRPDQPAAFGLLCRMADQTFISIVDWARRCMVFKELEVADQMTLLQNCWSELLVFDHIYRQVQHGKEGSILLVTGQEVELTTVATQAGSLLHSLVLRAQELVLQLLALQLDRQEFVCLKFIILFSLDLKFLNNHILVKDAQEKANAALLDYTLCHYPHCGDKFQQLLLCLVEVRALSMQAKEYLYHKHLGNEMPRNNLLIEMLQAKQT
Sequence of Nonstructural protein 1 (Q194T2 whole entry): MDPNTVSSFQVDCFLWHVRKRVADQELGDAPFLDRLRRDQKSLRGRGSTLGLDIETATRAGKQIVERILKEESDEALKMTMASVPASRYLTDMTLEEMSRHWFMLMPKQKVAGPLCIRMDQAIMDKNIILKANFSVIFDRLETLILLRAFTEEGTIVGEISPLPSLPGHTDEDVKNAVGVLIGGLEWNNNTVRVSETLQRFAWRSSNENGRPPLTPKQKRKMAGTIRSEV
Sequence of Nuclear receptor subfamily 5 group A member 2 (O00482 whole entry): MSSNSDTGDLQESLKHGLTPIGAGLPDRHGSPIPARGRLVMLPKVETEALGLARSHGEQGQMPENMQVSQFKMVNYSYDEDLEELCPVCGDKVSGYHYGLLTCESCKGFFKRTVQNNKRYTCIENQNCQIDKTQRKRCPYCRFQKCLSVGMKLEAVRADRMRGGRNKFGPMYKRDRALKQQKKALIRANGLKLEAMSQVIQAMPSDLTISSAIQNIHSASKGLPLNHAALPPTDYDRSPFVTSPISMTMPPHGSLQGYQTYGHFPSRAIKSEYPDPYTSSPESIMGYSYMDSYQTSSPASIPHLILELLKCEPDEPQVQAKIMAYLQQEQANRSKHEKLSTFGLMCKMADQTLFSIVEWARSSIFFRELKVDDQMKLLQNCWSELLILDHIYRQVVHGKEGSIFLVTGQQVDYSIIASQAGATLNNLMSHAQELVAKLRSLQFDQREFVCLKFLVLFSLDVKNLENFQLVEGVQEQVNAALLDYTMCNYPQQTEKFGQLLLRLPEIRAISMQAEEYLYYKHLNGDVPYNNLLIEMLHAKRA

Cc1cc(NC(=O)c2nn3cccnc3c2Cl)no1
EC50 [1]: > 67.5 µM (inactive)

CCOc1cc(CN2CCN(C(=O)c3ccco3)CC2)ccc1OC
EC50 (Mu-type opioid receptor): 92.5 µM (inactive) | EC50 [2]: 5.88 µM (active)

Sc1nnc(-c2ccccc2)n1Cc1ccccc1
IC50 (Beta-lactamase [3]): > 59.6 µM (inactive) | IC50 (Beta-lactamase [4]): > 59.6 µM (inactive) | IC50 (Beta-lactamase [5]): > 59.6 µM (inactive)

CCN1CCN(C2=C(Nc3ccc(F)cc3)C(=O)c3ccccc3C2=O)CC1
AC50 [6]: 11.9 µM (active) | AC50 [7]: > 70 µM (inactive) | AC50 [8]: 3.49 µM (active)

CN(C)c1cc(-c2ccc(Cl)c(Cl)c2)oc(=O)c1Cl
IC50 [9]: 35.4 µM (inactive) | IC50 [10]: 8.63 µM (active)

O=S(=O)(Nc1cccc(-c2ccc(N3CCCCCC3)nn2)c1)c1ccccc1F
CC50 [11]: > 50 µM (active) | IC50 (Fatty acid synthase [12]): 7.03 µM (active) | IC50 (Fatty acid synthase [13]): 6.9 µM (active) | IC50 (cells): > 67.6 µM (inactive) | IC50 [14]: > 67.6 µM (inactive)

Nc1cc(Cl)ccc1Oc1ccc2ccccc2c1
AC50 [15]: 5.81 µM (active) | IC50 [16]: > 69.5 µM (inactive) | IC50 [17]: 29.6 µM (inactive)

CC(C)N1C[C@@H](CN(C)Cc2ccc(Cl)cc2)Oc2c(NC(=O)c3ccnnc3)cccc2C1=O
AC50 [18]: 0.198 µM (active)

Cc1c(C(=O)N2CCCC2)oc2ccc(Br)cc12
AC50 (Vero): 35.1 µM (active) | AC50 (Caspase-6): 23.5 µM (active)

Cc1ccc(NC(S)=NNc2ccc(C(=O)O)cc2[N+](=O)[O-])cc1C
AC50 [19]: > 100 µM (inactive)

Nc1nc(-c2ccccc2)c(N=Nc2cccc3ccccc23)s1
EC50 [20]: 4.14 µM (active) | EC50 (Streptokinase A): > 150 µM (not active) | EC50 (Streptococcus): > 150 µM (not active) | IC50 (Nonstructural protein 1): 9.98 µM (active) | IC50 [21]: 31.3 µM (inactive)

CCOC(=O)C1=C(C)c2ccccc2N(C(=O)OC)C1(C)C(=O)OCC (stereo unspecified)
IC50 [22]: 15.6 µM (active) | IC50 [23]: 34.6 µM (active)

CC(C)N(C)C(=O)CCc1nnc(CCc2c[nH]c3ccccc23)o1
AC50 [24]: < 0.009 µM (active) | AC50 [25]: 0.009 µM (active)

CCN1CCN(Cc2nc3ncc([N+](=O)[O-])cc3c(=O)n2-c2ccccc2)CC1
IC50 [26]: 0.832 µM (active)

Cc1ccc(NC(=O)c2ccc(Cl)cc2Cl)cc1O
IC50 (HEK293): > 67.6 µM (inactive) | IC50 [27]: > 67.6 µM (inactive) | AC50 [28]: 26 µM (active)

COc1ccc(-c2cc3nc(C)cc(N4CCN(C(=O)c5ccoc5)CC4)n3n2)cc1
IC50 (H9c2): 27.3 µM (active) | EC50 [29]: 6.12 µM (active)

COc1cccc(-c2cnc3c(NC(C)=O)cc(-c4ccc(S(C)(=O)=O)cc4)cn23)c1
IC50 [30]: 9.25 µM (active) | IC50 (Steroidogenic factor 1): 4.62 µM (active) | IC50 [31]: 23.5 µM (inactive)
